Patent publication US20260138961A1, “MODULATORS OF MITOCHONDRIAL DNA REPLICATION” (Pretzel Therapeutics, Inc., priority 2022, published 2026)

Each compound was assayed against T1, POLγA:R309C (Homo sapiens, UniProt P54098, R309C) (assay: DNA polymerization assay, POLγA:R309C mutant). Details: stimulation of polymerase activity, primed M13mp18 ssDNA, 37° C. 2 hours.
T1 sequence (P54098 1-1239 R309C): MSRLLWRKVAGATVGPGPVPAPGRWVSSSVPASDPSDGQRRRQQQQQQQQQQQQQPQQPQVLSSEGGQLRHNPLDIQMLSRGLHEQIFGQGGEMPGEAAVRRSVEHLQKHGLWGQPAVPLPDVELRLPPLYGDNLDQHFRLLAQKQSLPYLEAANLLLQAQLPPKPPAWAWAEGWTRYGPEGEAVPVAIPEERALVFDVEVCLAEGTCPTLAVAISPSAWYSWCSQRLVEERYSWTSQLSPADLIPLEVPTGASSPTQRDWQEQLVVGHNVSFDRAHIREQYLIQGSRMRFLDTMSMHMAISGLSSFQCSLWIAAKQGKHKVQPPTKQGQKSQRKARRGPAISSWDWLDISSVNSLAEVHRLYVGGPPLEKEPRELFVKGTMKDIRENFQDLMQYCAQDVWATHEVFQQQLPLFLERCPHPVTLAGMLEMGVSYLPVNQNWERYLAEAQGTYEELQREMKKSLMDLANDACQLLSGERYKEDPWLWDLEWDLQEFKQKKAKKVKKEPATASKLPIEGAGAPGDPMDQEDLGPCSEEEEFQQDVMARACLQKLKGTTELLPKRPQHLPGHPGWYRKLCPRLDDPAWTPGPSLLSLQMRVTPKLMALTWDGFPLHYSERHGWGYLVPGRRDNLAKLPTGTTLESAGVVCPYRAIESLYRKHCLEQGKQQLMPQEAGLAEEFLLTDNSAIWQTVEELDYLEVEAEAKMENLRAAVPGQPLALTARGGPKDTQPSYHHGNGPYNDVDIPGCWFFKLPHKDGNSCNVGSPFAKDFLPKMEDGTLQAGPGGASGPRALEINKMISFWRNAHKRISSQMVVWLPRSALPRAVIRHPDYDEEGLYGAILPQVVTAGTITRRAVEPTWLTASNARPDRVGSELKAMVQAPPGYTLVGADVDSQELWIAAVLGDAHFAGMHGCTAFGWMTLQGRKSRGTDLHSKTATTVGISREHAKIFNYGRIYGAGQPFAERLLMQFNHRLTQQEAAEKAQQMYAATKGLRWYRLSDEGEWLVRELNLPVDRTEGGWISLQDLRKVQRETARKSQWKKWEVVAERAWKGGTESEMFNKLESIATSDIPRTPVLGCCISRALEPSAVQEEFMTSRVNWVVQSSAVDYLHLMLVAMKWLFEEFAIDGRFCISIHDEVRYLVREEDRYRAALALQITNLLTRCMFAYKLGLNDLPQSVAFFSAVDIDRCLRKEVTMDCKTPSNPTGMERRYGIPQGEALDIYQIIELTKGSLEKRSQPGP
T1 sequence (Q9UHN1 1-485 partner): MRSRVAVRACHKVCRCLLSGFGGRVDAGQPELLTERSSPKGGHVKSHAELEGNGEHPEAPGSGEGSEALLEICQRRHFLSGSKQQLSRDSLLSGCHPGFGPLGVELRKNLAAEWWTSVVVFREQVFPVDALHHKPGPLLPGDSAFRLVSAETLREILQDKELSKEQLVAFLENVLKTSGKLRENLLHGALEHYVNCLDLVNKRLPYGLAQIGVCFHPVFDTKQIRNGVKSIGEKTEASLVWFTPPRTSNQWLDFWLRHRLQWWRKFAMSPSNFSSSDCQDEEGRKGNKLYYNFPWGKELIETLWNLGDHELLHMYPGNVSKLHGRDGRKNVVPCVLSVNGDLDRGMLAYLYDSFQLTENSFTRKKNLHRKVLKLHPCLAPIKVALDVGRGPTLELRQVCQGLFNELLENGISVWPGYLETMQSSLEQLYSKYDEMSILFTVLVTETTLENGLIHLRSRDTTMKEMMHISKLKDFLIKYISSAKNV
Assay type: biochemical
Protocol: DNA Polymerization Assay to Monitor Effects on Human Wildtype POLγ and Four Disease-Causing Mutant Variants of Human POLγ.
The ability of small molecules to stimulate the polymerase activity of POLγ was analyzed in a quantitative fluorescence SYBR Green I assay with fluorescence intensity (FI) readout.
In the presence of dNTPs, wild type human POLγ and mutant derivatives thereof were incubated with single-stranded, circular M13mp18 ssDNA hybridized to a short DNA oligonucleotide that functions as a primer for initiation of DNA synthesis. POLγ and mutant derivatives thereof will extend the primer and use the M13mp18 molecule as a template to synthesize long stretches of double-stranded DNA. SYBR Green I, which is a double-stranded DNA-binding dye, was used to quantify formation of double-stranded DNA in the reaction. When bound to double-stranded DNA, SYBR Green I fluorescence increases by up to 100-fold.
The assay was performed in the 384-well plate format. Upon addition of compounds, changes in double-stranded DNA synthesis activity can be monitored by following effects on fluorescent intensity.
The reactions also contained the accessory POLγB subunit, and the human mitochondrial single-stranded DNA binding protein (mtSSB).
The DNA template mixture used in the assay contained 0.5 nM primed M13 mp18 ssDNA, 400 nM mtSSB, 0.1 mM Tris-HCl (pH 8.0), 0.1 mM dNTP, 10 mM MgCl2, 0.1 mg/mL BSA, 1 mM TCEP solution, and 0.02% Triton X-100. The DNA template mixture for the wild type protein contained either 100 μM dNTP, 1 μM dNTP, or 0.1 μM dNTP, designated in Table 2 as 100 μM, 1 μM, and 0.1 μM, respectfully.
Microplates with compounds (0.1 μL in each well) to be tested in the assay were prepared from 10 mM compound stocks in 100% DMSO, and equal amounts of DMSO without any compound were added to positive and negative control wells.
The protein mixture was dispensed (5 μL into each well) into compound plates and incubated at 37° C. for 15 minutes. After incubation, 5 μL of the DNA template mixture was dispensed into each well. The plates were then incubated at 37° C. for 2 hours.
During incubation, a combined stop buffer and detection reagent solution was prepared. The buffer contained 25 mM EDTA (pH 8.0), 0.02% Triton X-100, and SYBR Green I [Invitrogen] diluted 10,000× (for fluorescent readout). EDTA will stop the enzymatic reaction by chelating magnesium ions.
In the case of Cc1cc(S(=O)(=O)Nc2cccc(C(=O)N(C)C(C)CO)c2)c(C)cc1Cl (single isomer, unassigned) [Example 14, 3-((4-chloro-2,5-dimethylphenyl)sulfonamido)-N-(1-hydroxypropan-2-yl)-N-methylbenzamide], the AC50 was 13 µM.
Cc1ccc(C)c(S(=O)(=O)Nc2cccc(C(=O)N3CCCCC3C#N)c2)c1 (centres unmarked) [Example 2, N-(3-(2-cyanopiperidine-1-carbonyl)phenyl)-2,5-dimethylbenzenesulfonamide] gave an AC50 of 8 µM.
Compound Cc1ccc(C)c(S(=O)(=O)Nc2cccc(C(=O)N3CCCCC3)c2)c1 [Example 3, 2,5-dimethyl-N-(3-(piperidine-1-carbonyl)phenyl)benzene sulfonamide] has an AC50 of 28 µM.
Cc1ccc(C)c(S(=O)(=O)Nc2cccc(C(=O)NCC3CC3)c2)c1 [Example 4, N-(cyclopropylmethyl)-3-((2,5-dimethylphenyl)sulfonamido)benzamide] gave an AC50 of 25 µM.
Cc1ccc(C)c(S(=O)(=O)Nc2cccc(C(=O)N3CCCC[C@H]3C)c2)c1 [Example 5, (R)-2,5-dimethyl-N-(3-(2-methylpiperidine-1-carbonyl)phenyl)benzenesulfonamide] showed an AC50 of 11 µM.
Work on Cc1ccc(C)c(S(=O)(=O)Nc2cccc(C(=O)N3CCCC[C@@H]3C)c2)c1 [Example 6, (S)-2,5-dimethyl-N-(3-(2-methylpiperidine-1-carbonyl)phenyl)benzenesulfonamide] yielded an AC50 of 13 µM.
Work on Cc1ccc(C)c(S(=O)(=O)Nc2cccc(C(=O)N3CCOCC3C#N)c2)c1 (centres unmarked) [Example 7, N-(3-(3-cyanomorpholine-4-carbonyl)phenyl)-2,5-dimethylbenzenesulfonamide] yielded an AC50 of 10 µM.
For Cc1ccc(C)c(S(=O)(=O)Nc2cccc(C(=O)N[C@@H](C)C3CC3)c2)c1 [Example 8, (S)-N-(1-cyclopropylethyl)-3-((2,5-dimethylphenyl)sulfonamido)benzamide], the AC50 was 4 µM.
Work on Cc1cc(S(=O)(=O)Nc2cccc(C(=O)N3CCCC[C@H]3C)c2)c(C)cc1Cl [Example 9, (R)-4-chloro-2,5-dimethyl-N-(3-(2-methylpiperidine-1-carbonyl)phenyl)benzenesulfonamide] yielded an AC50 of 2 µM.
Cc1cc(S(=O)(=O)Nc2cccc(C(=O)N3CCC[C@H]3C)c2)c(C)cc1Cl [Example 10, (R)-4-chloro-2,5-dimethyl-N-(3-(2-methylpyrrolidine-1-carbonyl)phenyl)benzenesulfonamide] was tested, and the AC50 was 1 µM.
For Cc1cc(S(=O)(=O)Nc2cccc(C(=O)NCc3ccccc3)c2)c(C)cc1Cl [Example 11, N-benzyl-3-((4-chloro-2,5-dimethylphenyl)sulfonamido)benzamide], the AC50 was 6 µM.
Compound Cc1cc(S(=O)(=O)Nc2cccc(C(=O)N(C)C)c2)c(C)cc1Cl [Example 12, 3-((4-chloro-2,5-dimethylphenyl)sulfonamido)-N,N-dimethylbenzamide] has an AC50 of 3 µM.
Cc1cc(S(=O)(=O)Nc2cc(F)cc(C(=O)N3CCC[C@H]3C)c2)c(C)cc1Cl [Example 13, (R)-4-chloro-N-(3-fluoro-5-(2-methylpyrrolidine-1-carbonyl)phenyl)-2,5-dimethylbenzenesulfonamide] was tested, and the AC50 was 3 µM.
For Cc1cc(S(=O)(=O)Nc2cccc(-c3nccs3)c2)c(C)cc1Cl [Example 16, 4-chloro-2,5-dimethyl-N-(3-(thiazol-2-yl)phenyl)benzenesulfonamide], the AC50 was 2 µM.
Work on Cc1cc(S(=O)(=O)Nc2cccc(-c3ncco3)c2)c(C)cc1Cl [Example 17, 4-chloro-2,5-dimethyl-N-(3-(oxazol-2-yl)phenyl)benzenesulfonamide] yielded an AC50 of 2 µM.
For Cc1cc(S(=O)(=O)Nc2cccc(-c3ccn(C)n3)c2)c(C)cc1Cl [Example 18, 4-chloro-2,5-dimethyl-N-(3-(1-methyl-1H-pyrazol-3-yl)phenyl)benzenesulfonamide], the AC50 was 5 µM.
For Cc1cc(S(=O)(=O)Nc2cccc(-c3nccn3C)c2)c(C)cc1Cl [Example 19, 4-chloro-2,5-dimethyl-N-(3-(1-methyl-1H-imidazol-2-yl)phenyl)benzenesulfonamide], the AC50 was 3 µM.
For Cc1cc(S(=O)(=O)Nc2cccc(-c3ncc(C#N)s3)c2)c(C)cc1Cl [Example 96, 4-chloro-N-(3-(5-cyanothiazol-2-yl)phenyl)-2,5-dimethylbenzenesulfonamide], the AC50 was > 100 µM.
For Cc1cnc(-c2ccc(C)c(NS(=O)(=O)c3cc(C)c(Cl)cc3C)c2)s1 [Example 98, 4-chloro-2,5-dimethyl-N-(2-methyl-5-(5-methylthiazol-2-yl)phenyl)benzenesulfonamide], the AC50 was > 100 µM.
With Cc1cnc(-c2ccc(Cl)c(NS(=O)(=O)c3cc(C)c(Cl)cc3C)c2)s1 [Example 102, 4-chloro-N-(2-chloro-5-(5-methylthiazol-2-yl)phenyl)-2,5-dimethylbenzenesulfonamide] the AC50 was > 100 µM.
Cc1cnc(-c2cc(NS(=O)(=O)c3cc(C)c(Cl)cc3C)ccc2C)s1 [Example 103, 4-chloro-2,5-dimethyl-N-(4-methyl-3-(5-methylthiazol-2-yl)phenyl)benzenesulfonamide] showed an AC50 of 58 µM.
Compound Cc1cc(S(=O)(=O)Nc2ccc3c(c2)CC(=O)N3)c(C)cc1Cl [Example 185, 4-chloro-2,5-dimethyl-N-(2-oxoindolin-5-yl)benzenesulfonamide] has an AC50 of 8 µM.
With “(R)-2,5-dimethyl-N-(3-(3-methylmorpholine-4-carbonyl)phenyl)benzenesulfonamide [Example 1]” the AC50 was 12 µM.
